Measurements: patent US10202361B2, “Pyridazinones as herbicides” (E I DU PONT DE NEMOURS AND COMPANY, priority 2014, dated 2019)
Read-outs that look alike come from different tables or passages of the source.

Columns and labels:
Experiment in all cases: Test C pre-/postemergence greenhouse herbicide test
Assay type in all cases: in vivo
[1] = tested on: waterhemp (common waterhemp, Amaranthus rudis); conditions: Waterhemp
Outline: (§1)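 Visual ratings, 0 = no effect, 100 = complete control, vs untreated controls at 13–15 d. Pre: seeds in loam/sand. Post: 2–18 cm plants (1–4 leaf), peat/vermiculite mix. Surfactant-containing solvent formulation; greenhouse.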

[2] = tested on: nutsedge, yellow (yellow nutsedge, Cyperus esculentus); conditions: Cyperus, Nutsedge, Yellow, read-out: Plant response rating; for pest or weed control at 31 g/ha: 31 g ai/ha; for pest or weed control at 62 g/ha: 62 g ai/ha; for pest or weed control at 125 g/ha: 125 g ai/ha; for pest or weed control at 250 g/ha: 250 g ai/ha
Outline: as §1

[3] = tested on: morningglory (Ipomoea coccinea); conditions: Morningglory
Outline: as §1

[4] = tested on: ryegrass, Italian (Italian ryegrass, Lolium multiflorum); conditions: Lolium multiflorum, Ryegrass, Italian, read-out: Plant response rating; for pest or weed control at 31 g/ha: 31 g ai/ha; for pest or weed control at 62 g/ha: 62 g ai/ha; for pest or weed control at 125 g/ha: 125 g ai/ha; for pest or weed control at 250 g/ha: 250 g ai/ha
Outline: as §1

[5] = tested on: soybean (Glycine max); conditions: Glycine max, Soybean, read-out: Plant response rating; for plant injury at 62 g/ha: 62 g ai/ha; for plant injury at 125 g/ha: 125 g ai/ha; for plant injury at 250 g/ha: 250 g ai/ha
Outline: as §1

[6] = tested on: blackgrass (Alopecurus myosuroides); conditions: Alopecurus myosuroides, Blackgrass, read-out: Plant response rating; for pest or weed control at 31 g/ha: 31 g ai/ha; for pest or weed control at 62 g/ha: 62 g ai/ha; for pest or weed control at 125 g/ha: 125 g ai/ha; for pest or weed control at 250 g/ha: 250 g ai/ha
Outline: as §1

[7] = tested on: lambsquarters (Chenopodium album)
Outline: as §1

[8] = tested on: corn (Zea mays); conditions: Zea mays, Corn, read-out: Plant response rating; for plant injury at 31 g/ha: 31 g ai/ha; for plant injury at 62 g/ha: 62 g ai/ha; for plant injury at 125 g/ha: 125 g ai/ha; for plant injury at 250 g/ha: 250 g ai/ha
Outline: as §1

[9] = tested on: foxtail, giant (giant foxtail, Setaria faberii); conditions: Setaria faberi, Foxtail, Giant, read-out: Plant response rating; for pest or weed control at 31 g/ha: 31 g ai/ha; for pest or weed control at 62 g/ha: 62 g ai/ha; for pest or weed control at 125 g/ha: 125 g ai/ha; for pest or weed control at 250 g/ha: 250 g ai/ha
Outline: as §1

[10] = tested on: velvetleaf (Abutilon theophrasti); conditions: Abutilon theophrasti, Velvetleaf, read-out: Plant response rating; for pest or weed control at 62 g/ha: 62 g ai/ha; for pest or weed control at 125 g/ha: 125 g ai/ha; for pest or weed control at 250 g/ha: 250 g ai/ha
Outline: as §1

[11] = tested on: galium (catchweed bedstraw, Galium aparine); conditions: Galium, read-out: Plant response rating; for pest or weed control at 31 g/ha: 31 g ai/ha; for pest or weed control at 62 g/ha: 62 g ai/ha; for pest or weed control at 125 g/ha: 125 g ai/ha; for pest or weed control at 250 g/ha: 250 g ai/ha
Outline: as §1

[12] = tested on: kochia (Kochia scoparia); conditions: Postemergence
Outline: as §1

[13] = post-emergence, Postemergence, 31 g ai/ha

SMILES: Cc1cc(=O)n(-c2ccc(F)cc2)nc1Cc1ccnc(C(F)(F)F)c1 [Compound 1, 2-(4-fluorophenyl)-5-methyl-6-[[2-(trifluoromethyl)-4-pyridinyl]methyl]-3(2H)-pyridazinone]
- Plant response rating ([1]; Postemergence, 31 g ai/ha): 50
- Plant response rating ([1]; Postemergence, 62 g ai/ha): 50
- Plant response rating ([1]; Postemergence, 125 g ai/ha): 65
- Plant response rating ([1]; Postemergence, 250 g ai/ha): 65
- Plant response rating ([1]; Preemergence, 62 g ai/ha): 100
- Plant response rating ([1]; Preemergence, 125 g ai/ha): 100
- Plant response rating ([1]; Preemergence, 250 g ai/ha): 100
- pest or weed control at 31 g/ha ([2]; post-emergence, Postemergence): 0%
- pest or weed control at 62 g/ha ([2]; post-emergence, Postemergence): 5%
- pest or weed control at 125 g/ha ([2]; post-emergence, Postemergence): 5%
- pest or weed control at 250 g/ha ([2]; post-emergence, Postemergence): 5%
- pest or weed control at 31 g/ha ([2]; pre-emergence, Preemergence): 10%
- pest or weed control at 62 g/ha ([2]; pre-emergence, Preemergence): 30%
- pest or weed control at 125 g/ha ([2]; pre-emergence, Preemergence): 50%
- pest or weed control at 250 g/ha ([2]; pre-emergence, Preemergence): 55%
- Plant response rating ([3]; Postemergence, 31 g ai/ha): 60
- Plant response rating ([3]; Postemergence, 125 g ai/ha): 70
- Plant response rating ([3]; Postemergence, 250 g ai/ha): 70
- Plant response rating ([3]; Preemergence, 31 g ai/ha): 50
- Plant response rating ([3]; Preemergence, 62 g ai/ha): 90
- Plant response rating ([3]; Preemergence, 125 g ai/ha): 100
- Plant response rating ([3]; Preemergence, 250 g ai/ha): 100
- pest or weed control at 31 g/ha ([4]; post-emergence, Postemergence): 5%
- pest or weed control at 62 g/ha ([4]; post-emergence, Postemergence): 5%
- pest or weed control at 125 g/ha ([4]; post-emergence, Postemergence): 5%
- pest or weed control at 250 g/ha ([4]; post-emergence, Postemergence): 5%
- pest or weed control at 31 g/ha ([4]; pre-emergence, Preemergence): 5%
- pest or weed control at 62 g/ha ([4]; pre-emergence, Preemergence): 10%
- pest or weed control at 125 g/ha ([4]; pre-emergence, Preemergence): 85%
- pest or weed control at 250 g/ha ([4]; pre-emergence, Preemergence): 98%
- plant injury at 31 g/ha [5, 13]: 35%
- plant injury at 62 g/ha ([5]; post-emergence, Postemergence): 40%
- plant injury at 125 g/ha ([5]; post-emergence, Postemergence): 50%
- plant injury at 250 g/ha ([5]; post-emergence, Postemergence): 70%
- plant injury at 62 g/ha ([5]; pre-emergence, Preemergence): 60%
- plant injury at 125 g/ha ([5]; pre-emergence, Preemergence): 95%
- plant injury at 250 g/ha ([5]; pre-emergence, Preemergence): 98%
- pest or weed control at 31 g/ha ([6]; post-emergence, Postemergence): 5%
- pest or weed control at 62 g/ha ([6]; post-emergence, Postemergence): 5%
- pest or weed control at 125 g/ha ([6]; post-emergence, Postemergence): 5%
- pest or weed control at 250 g/ha ([6]; post-emergence, Postemergence): 5%
- pest or weed control at 31 g/ha ([6]; pre-emergence, Preemergence): 30%
- pest or weed control at 62 g/ha ([6]; pre-emergence, Preemergence): 30%
- pest or weed control at 125 g/ha ([6]; pre-emergence, Preemergence): 90%
- pest or weed control at 250 g/ha ([6]; pre-emergence, Preemergence): 90%
- Plant response rating ([7]; Postemergence, 31 g ai/ha): 60
- Plant response rating ([7]; Postemergence, 125 g ai/ha): 65
- Plant response rating ([7]; Postemergence, 250 g ai/ha): 75
- Plant response rating ([7]; Preemergence, 31 g ai/ha): 100
- Plant response rating ([7]; Preemergence, 62 g ai/ha): 100
- Plant response rating ([7]; Preemergence, 125 g ai/ha): 100
- Plant response rating ([7]; Preemergence, 250 g ai/ha): 100
- plant injury at 31 g/ha ([8]; post-emergence, Postemergence): 5%
- plant injury at 62 g/ha ([8]; post-emergence, Postemergence): 5%
- plant injury at 125 g/ha ([8]; post-emergence, Postemergence): 5%
- plant injury at 250 g/ha ([8]; post-emergence, Postemergence): 10%
- plant injury at 31 g/ha ([8]; pre-emergence, Preemergence): 15%
- plant injury at 62 g/ha ([8]; pre-emergence, Preemergence): 50%
- plant injury at 125 g/ha ([8]; pre-emergence, Preemergence): 90%
- plant injury at 250 g/ha ([8]; pre-emergence, Preemergence): 95%
- pest or weed control at 31 g/ha ([9]; post-emergence, Postemergence): 10%
- pest or weed control at 62 g/ha ([9]; post-emergence, Postemergence): 10%
- pest or weed control at 125 g/ha ([9]; post-emergence, Postemergence): 15%
- pest or weed control at 250 g/ha ([9]; post-emergence, Postemergence): 20%
- pest or weed control at 31 g/ha ([9]; pre-emergence, Preemergence): 100%
- pest or weed control at 62 g/ha ([9]; pre-emergence, Preemergence): 100%
- pest or weed control at 125 g/ha ([9]; pre-emergence, Preemergence): 100%
- pest or weed control at 250 g/ha ([9]; pre-emergence, Preemergence): 100%
- pest or weed control at 31 g/ha [10, 13]: 10%
- pest or weed control at 62 g/ha ([10]; post-emergence, Postemergence): 20%
- pest or weed control at 125 g/ha ([10]; post-emergence, Postemergence): 20%
- pest or weed control at 250 g/ha ([10]; post-emergence, Postemergence): 30%
- pest or weed control at 62 g/ha ([10]; pre-emergence, Preemergence): 35%
- pest or weed control at 125 g/ha ([10]; pre-emergence, Preemergence): 40%
- pest or weed control at 250 g/ha ([10]; pre-emergence, Preemergence): 100%
- pest or weed control at 31 g/ha ([11]; post-emergence, Postemergence): 40%
- pest or weed control at 62 g/ha ([11]; post-emergence, Postemergence): 65%
- pest or weed control at 125 g/ha ([11]; post-emergence, Postemergence): 70%
- pest or weed control at 250 g/ha ([11]; post-emergence, Postemergence): 70%
- pest or weed control at 31 g/ha ([11]; pre-emergence, Preemergence): 95%
- pest or weed control at 62 g/ha ([11]; pre-emergence, Preemergence): 100%
- pest or weed control at 125 g/ha ([11]; pre-emergence, Preemergence): 100%
- pest or weed control at 250 g/ha ([11]; pre-emergence, Preemergence): 100%
- Plant response rating ([12]; 31 g ai/ha): 80
- Plant response rating ([12]; 62 g ai/ha): 80
- Plant response rating ([12]; 125 g ai/ha): 85
- Plant response rating ([12]; 250 g ai/ha): 85
